Consider 1 compound from patent US11607404B2, “Combinations of RAD51 and PARP inhibitors” (Cyteir Therapeutics, Inc., priority 2019, dated 2023).

The structures appear in SMILES notation.

The subject of experiment [1] is ARPE19/HPV16, KYSE-70 and Daudi cell lines. Description: Combination matrix study Compound 67A + PARP inhibitors, cell lines of varying AID expression (Bliss, Loewe). It is filed as cell-based. The conditions noted are these: non-tumor derived cell line ARPE19/HPV16; in combination with Compound 67A.
Protocol: The combination matrix was tested in 3 cell lines of varying AID expression: ARPE19/HPV16 (HPV immortalized normal epithelial cell line), KYSE-70 (head and neck cancer cell line) and Daudi (Burkitt's Lymphoma cell line). […] Both the Loewe Additivity model and the Bliss Independence model were used to determine drug interaction (synergistic, independent, or antagonistic).
Bliss Independence model was used and calculated in Excel. The model assumes that the drugs act with probabilistic independence. Bliss: yexp=yA+yB−yAyB
This expected value was generated by examining single-agent effects and then tested against the observed value using a two-tailed Welch's T-Test. For visualization purposes, the values generated from this test were transformed to a “Synergy Score” by doing the computation:
Loewe Additivity model was used and calculated by the “Synergyfinder” R package.
The graphs generated describe the difference between the expected value generated by the additivity model and the observed value generated by the experiment. If the effect determined by the additivity model<the effect observed the space is colored red, if the effect determined by the additivity mode>the effect observed then the space is colored green. The saturation of the color is proportional to the magnitude of the difference between these two values.
In a further experiment the test system is HBCx1 model. Briefly: Tumor growth inhibition, subcutaneous engrafted tumor model. It is filed as in vivo, mice. The conditions noted are these: HRD Positive, RAD51 High, BRCA WT, PALB2 WT, 67A 80 mg/kg QD, olaparib 100 mg/kg QD, combo both. The protocol:
(§1) Immunodeficient mice were subcutaneously engrafted in the rear flank with the tumor cells. The tumors were allowed to grow to a size of about 100 to about 200 mm^3 prior to being randomized and grouped into treatment arms. For models […] through […] the four treatment arms were vehicle, Compound 67A at 80 mg/kg QD, olaparib at 100 mg/kg QD, and Compound 67A+Olaparib at 80 mg/kg QD and 100 mg/kg QD, respectively. For models J000101173 through TM00091 the treatment arms were vehicle, Compound 67A at 40 mg/kg QD, olaparib at 50 mg/kg QD, and Compound 67A+Olaparib at 40 mg/kg QD and 50 mg/kg QD, respectively. The tumors were measured either once weekly or twice weekly.
(§2) Percent Tumor Growth Inhibition (% TGI) was calculated by taking the mean volume of each of the treatment arms, and comparing the treatment arms to the vehicle arms using the following equation

The next experiment relates to HBCx11 model. Described as above. In kind it is in vivo, mice. The conditions noted are these: HRD Positive, RAD51 High, BRCA1 Mut, PALB2 WT, 67A 80 mg/kg QD, olaparib 100 mg/kg QD, combo both. The method, then:
as §1, §2

The test system of a further experiment is HBCx12B model. The experiment is described as above. It is filed as in vivo, mice. The conditions noted are these: HRD Positive, RAD51 High, BRCA1 Meth, PALB2 WT, 67A 80 mg/kg QD, olaparib 100 mg/kg QD, combo both. The method, then: as §1, §2
The next experiment concerns HBCx16 model. The description is as above. In kind it is in vivo, mice. Particulars: HRD Positive, RAD51 High, BRCA1 Meth, PALB2 WT, 67A 80 mg/kg QD, olaparib 100 mg/kg QD, combo both. The protocol:
as §1, §2

The next experiment has as its system HBCx17 model. The description is as above. In kind it is in vivo, mice. The conditions noted are these: HRD Positive, RAD51 High, BRCA2 Mut, PALB2 WT, 67A 80 mg/kg QD, olaparib 100 mg/kg QD, combo both. The protocol: as §1, §2
For another experiment, the system named is HBCx23 model. Described as above. It is filed as in vivo, mice. The conditions noted are these: HRD Positive, RAD51 High, BRCA1 Meth, PALB2 WT, 67A 80 mg/kg QD, olaparib 100 mg/kg QD, combo both. The protocol: as §1, §2
The test system of the next experiment is HBCx27 model. The description is as above. In kind it is in vivo, mice. Particulars: HRD Negative, RAD51 High, BRCA WT, PALB2 WT, 67A 80 mg/kg QD, olaparib 100 mg/kg QD, combo both. The method, then:
as §1, §2

For another experiment, the system named is J000100675 model. The description is as above. It is filed as in vivo, mice. The conditions noted are these: HRD Negative, RAD51 Low, BRCA WT, PALB2 WT, 67A 40 mg/kg QD, olaparib 50 mg/kg QD, combo both. The protocol:
as §1, §2

A further experiment has as its system J000101173 model. The experiment is described as above. The conditions noted are these: HRD Positive, RAD51 Low, BRCA WT, PALB2 WT, 67A 40 mg/kg QD, olaparib 50 mg/kg QD, combo both. It is filed as in vivo, mice. The protocol:
as §1, §2

Another experiment deals with T298 model. Described as above. It is filed as in vivo, mice. Particulars: HRD Positive, RAD51 Low, BRCA WT, PALB2 Mut, 67A 80 mg/kg QD, olaparib 100 mg/kg QD, combo both. The protocol: as §1, §2
The next experiment has as its system TM000113 model. Described as above. It is filed as in vivo, mice. The conditions noted are these: HRD Negative, RAD51 Low, BRCA WT, PALB2 WT, 67A 40 mg/kg QD, olaparib 50 mg/kg QD, combo both. The protocol:
as §1, §2

A further experiment deals with TM00090 model. The experiment is described as above. In kind it is in vivo, mice. Particulars: HRD Positive, RAD51 Low, BRCA1 Meth, BRCA2 Mut, PALB2 WT, 67A 40 mg/kg QD, olaparib 50 mg/kg QD, combo both. The method, then: as §1, §2
The test system of a further experiment is TM00091 model. The description is as above. Particulars: HRD Positive, RAD51 High, BRCA1 Mut, PALB2 WT, 67A 40 mg/kg QD, olaparib 50 mg/kg QD, combo both. It is filed as in vivo, mice. The method, then: as §1, §2
The subject of the next experiment is TM00096 model. The experiment is described as above. Particulars: HRD Positive, RAD51 Low, BRCA WT, PALB2 WT, 67A 40 mg/kg QD, olaparib 50 mg/kg QD, combo both. In kind it is in vivo, mice. The method, then:
as §1, §2

The test system of another experiment is TM01079 model. Described as above. The conditions noted are these: HRD Positive, RAD51 Low, BRCA1 Meth, PALB2 WT, 67A 40 mg/kg QD, olaparib 50 mg/kg QD, combo both. It is filed as in vivo, mice. The method, then: as §1, §2

`O=C(c1cc(Cc2n[nH]c(=O)c3ccccc23)ccc1F)N1CCN(C(=O)C2CC2)CC1` [Olaparib, olaparib, reference compound]: the “Drug interaction with Compound 67A (synergy)” value in experiment [1] is “synergy observed”. Further, the “% TGI” value is on record as 51.07% in the experiment with HBCx1 model; 60.95% in the experiment with HBCx11 model; 42.56% with HBCx12B model; −25.61% with HBCx16 model; 122% in the experiment with HBCx17 model; 84.48% with HBCx23 model. Further, the “% TGI” value is 7.819% in the experiment on HBCx27 model; −17% in the experiment with J000100675 model; 4.71% with J000101173 model; 107% in the experiment on T298 model; 2.37% in the experiment on TM000113 model; 86.05% in the experiment with TM00090 model. For the same compound, the “% TGI” value with TM00091 model is 21.26%; with TM00096 model, −1.94%; in the experiment on TM01079 model it was 68.7%.
